Measured values reported in PubChem BioAssay (NCI).
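Values below derive from 48-hour exposures of cells grown in 96-well plates, with endpoints linearly interpolated between the two concentrations bracketing the appropriate inhibition level. Here, GI50 denotes the concentration required for 50% inhibition of growth. TGI marks complete inhibition of growth.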

How the values were obtained:
Experiment in all cases: growth of human tumour cells (NCI), 48 h
[1] = tested on: 786-0 renal
[2] = tested on: A498 renal
[3] = tested on: A549 NSCLC
[4] = tested on: ACHN renal
[5] = tested on: CAKI-1 renal
[6] = tested on: CCRF-CEM leukemia
[7] = tested on: COLO 205 colon
[8] = tested on: DLD-1 colon
[9] = tested on: DMS 114 small cell lung
[10] = tested on: HCC-2998 colon
[11] = tested on: HCT-116 colon
[12] = tested on: HCT-15 colon
[13] = tested on: HL-60(TB) leukemia
[14] = tested on: HOP-18 NSCLC
[15] = tested on: HOP-62 NSCLC
[16] = tested on: HOP-92 NSCLC
[17] = tested on: HT29 colon
[18] = tested on: IGROV1 ovarian
[19] = tested on: K-562 leukemia
[20] = tested on: KM12 colon
[21] = tested on: LOX IMVI melanoma
[22] = tested on: LXFL 529 NSCLC
[23] = tested on: M14 melanoma
[24] = tested on: M19-MEL melanoma
[25] = tested on: MALME-3M melanoma
[26] = tested on: MOLT-4 leukemia
[27] = tested on: NCI-H23 lung
[28] = tested on: NCI-H460 lung
[29] = tested on: NCI-H522 lung
[30] = tested on: OVCAR-3 ovarian
[31] = tested on: OVCAR-4 ovarian
[32] = tested on: OVCAR-5 ovarian
[33] = tested on: OVCAR-8 ovarian
[34] = tested on: RPMI-8226 leukemia
[35] = tested on: RXF 393 renal
[36] = tested on: SF-268 CNS
[37] = tested on: SF-295 CNS
[38] = tested on: SF-539 CNS
[39] = tested on: SK-MEL-2 melanoma
[40] = tested on: SK-MEL-28 melanoma
[41] = tested on: SK-MEL-5 melanoma
[42] = tested on: SK-OV-3 ovarian
[43] = tested on: SN12C renal
[44] = tested on: SNB-19 CNS
[45] = tested on: SNB-75 CNS
[46] = tested on: SR leukemia
[47] = tested on: SW-620 colon
[48] = tested on: TK-10 renal
[49] = tested on: U251 CNS
[50] = tested on: UACC-62 melanoma
[51] = tested on: UO-31 renal
[52] = tested on: DMS 273 small cell lung
[53] = tested on: EKVX NSCLC
[54] = tested on: KM20L2 colon
[55] = tested on: NCI-H226 lung
[56] = tested on: SNB-78 CNS
[57] = tested on: UACC-257 melanoma
[58] = tested on: BT-549 breast
[59] = tested on: DU-145 prostate
[60] = tested on: HS 578T breast
[61] = tested on: MCF7 breast
[62] = tested on: MDA-MB-231 breast
[63] = tested on: MDA-MB-435
[64] = tested on: MDA-N
[65] = tested on: NCI/ADR-RES ovarian
[66] = tested on: PC-3 prostate
[67] = tested on: T-47D breast

CC1(CO)OC(n2cnc3c(N)ncnc32)C(O)C1O (stereo not given)
TGI [1]: > 100 µM
TGI [2]: > 100 µM
TGI [3]: > 100 µM
TGI [4]: > 100 µM
TGI [5]: > 100 µM
TGI [6]: > 100 µM
TGI [7]: > 100 µM
TGI [8]: > 100 µM
TGI [9]: > 100 µM
TGI [10]: > 100 µM
TGI [11]: > 100 µM
TGI [12]: > 100 µM
TGI [13]: > 100 µM
TGI [14]: > 100 µM
TGI [15]: > 100 µM
TGI [16]: > 100 µM
TGI [17]: > 100 µM
TGI [18]: > 100 µM
TGI [19]: > 100 µM
TGI [20]: > 100 µM
TGI [21]: > 100 µM
TGI [22]: > 100 µM
TGI [23]: > 100 µM
TGI [24]: > 100 µM
TGI [25]: > 100 µM
TGI [26]: > 100 µM
TGI [27]: > 100 µM
TGI [28]: > 100 µM
TGI [29]: > 100 µM
TGI [30]: > 100 µM
TGI [31]: > 100 µM
TGI [32]: > 100 µM
TGI [33]: > 100 µM
TGI [34]: > 100 µM
TGI [35]: > 100 µM
TGI [36]: > 100 µM
TGI [37]: > 100 µM
TGI [38]: > 100 µM
TGI [39]: > 100 µM
TGI [40]: > 100 µM
TGI [41]: > 100 µM
TGI [42]: > 100 µM
TGI [43]: > 100 µM
TGI [44]: > 100 µM
TGI [45]: > 100 µM
TGI [46]: > 100 µM
TGI [47]: > 100 µM
TGI [48]: > 100 µM
TGI [49]: > 100 µM
TGI [50]: > 100 µM
TGI [51]: > 100 µM

O=C(Nc1ccccc1SC(/C=C/NNC1=NC(c2ccccc2)C(c2ccccc2)=NN1)c1ccccc1)c1ccc(Cl)cc1Cl (stereo not given)
TGI [1]: > 100 µM
TGI [2]: > 100 µM
TGI [3]: > 100 µM
TGI [4]: > 100 µM
TGI [6]: > 100 µM
TGI [7]: > 100 µM
TGI [8]: > 100 µM
TGI [9]: > 100 µM
TGI [52]: > 100 µM
TGI [53]: > 100 µM
TGI [10]: > 100 µM
TGI [12]: > 100 µM
TGI [13]: > 100 µM
TGI [15]: 73.5 µM
TGI [17]: > 100 µM
TGI [18]: > 100 µM
TGI [19]: > 100 µM
TGI [20]: > 100 µM
TGI [54]: > 100 µM
TGI [21]: > 100 µM
TGI [24]: > 100 µM
TGI [25]: > 100 µM
TGI [55]: 99.6 µM
TGI [27]: 55.6 µM
TGI [28]: > 100 µM
TGI [29]: > 100 µM
TGI [30]: > 100 µM
TGI [31]: 94.8 µM
TGI [32]: > 100 µM
TGI [33]: > 100 µM
TGI [34]: > 100 µM
TGI [35]: > 100 µM
TGI [36]: > 100 µM
TGI [37]: > 100 µM
TGI [38]: 60.2 µM
TGI [39]: 45.6 µM
TGI [40]: > 100 µM
TGI [41]: > 100 µM
TGI [42]: > 100 µM
TGI [43]: > 100 µM
TGI [44]: > 100 µM
TGI [45]: > 100 µM
TGI [56]: > 100 µM
TGI [47]: > 100 µM
TGI [48]: > 100 µM
TGI [49]: 64.6 µM
TGI [57]: > 100 µM
TGI [50]: > 100 µM
TGI [51]: 94.6 µM

CC[N-]c1nnnn1CC.[Au+].c1ccc([PH+](c2ccccc2)c2ccccc2)cc1
GI50 [1]: 1.37 µM
TGI [1]: 2.67 µM
GI50 [3]: 4.93 µM
TGI [3]: > 53.5 µM
GI50 [4]: 1.62 µM
TGI [4]: 3.02 µM
GI50 [7]: 2.19 µM
TGI [7]: 5.4 µM
GI50 [53]: 1.7 µM
TGI [53]: 4.04 µM
GI50 [10]: 1.68 µM
TGI [10]: 3.15 µM
GI50 [11]: 1.55 µM
TGI [11]: 2.9 µM
GI50 [13]: 0.187 µM
TGI [13]: 0.68 µM
GI50 [14]: 1.82 µM
TGI [14]: 3.23 µM
GI50 [15]: 2.07 µM
TGI [15]: 3.72 µM
GI50 [18]: 2.26 µM
TGI [18]: 5.96 µM
GI50 [19]: 0.342 µM
TGI [19]: 1.91 µM
GI50 [20]: 2.93 µM
TGI [20]: 11.6 µM
GI50 [54]: 2 µM
TGI [54]: 12.9 µM
GI50 [21]: 1.45 µM
TGI [21]: 2.93 µM
GI50 [22]: 0.723 µM
TGI [22]: 2.04 µM
GI50 [23]: 1.29 µM
TGI [23]: 2.79 µM
TGI [24]: 4.24 µM
GI50 [25]: 1.24 µM
TGI [25]: 2.55 µM
GI50 [26]: 0.716 µM
TGI [26]: 3.74 µM
GI50 [55]: 1.44 µM
TGI [55]: 3.2 µM
GI50 [27]: 1.39 µM
TGI [27]: 3.01 µM
GI50 [28]: 3.71 µM
TGI [28]: > 20.7 µM
GI50 [30]: 1.76 µM
TGI [30]: 3.15 µM
GI50 [32]: 4.5 µM
TGI [32]: 9.16 µM
GI50 [33]: 1.57 µM
TGI [33]: 3.07 µM
GI50 [34]: 0.568 µM
TGI [34]: 4.48 µM
GI50 [35]: 0.242 µM
TGI [35]: 0.801 µM
GI50 [37]: 3.09 µM
TGI [37]: 10 µM
GI50 [38]: 2.1 µM
TGI [38]: 5.79 µM
GI50 [39]: 1.14 µM
TGI [39]: 2.39 µM
GI50 [40]: 0.677 µM
TGI [40]: 2.16 µM
GI50 [41]: 0.811 µM
TGI [41]: 2.22 µM
GI50 [42]: 4.95 µM
TGI [42]: 9.98 µM
GI50 [43]: 1.65 µM
TGI [43]: 3.26 µM
GI50 [44]: 1.44 µM
TGI [44]: 2.76 µM
GI50 [45]: 1.35 µM
TGI [45]: 3.46 µM
GI50 [56]: 2.5 µM
TGI [56]: > 100 µM
GI50 [48]: 1.66 µM
TGI [48]: 3.07 µM
GI50 [49]: 1.96 µM
TGI [49]: 6.48 µM
GI50 [57]: 1.27 µM
TGI [57]: 2.72 µM
GI50 [50]: 1.2 µM
TGI [50]: 3.18 µM
GI50 [51]: 1.66 µM
TGI [51]: 3.14 µM

CN(C)CCNc1ccc2nnn3c4ccc(O)cc4c(=O)c1c23
TGI [1]: 15.4 µM
TGI [2]: 12.1 µM
TGI [3]: 13 µM
TGI [4]: 26.1 µM
TGI [58]: 28.5 µM
TGI [5]: 20 µM
TGI [6]: 32.9 µM
TGI [7]: 18.2 µM
TGI [8]: 22.7 µM
TGI [9]: 20.9 µM
TGI [59]: 18.6 µM
TGI [53]: 18.5 µM
TGI [10]: 19.6 µM
TGI [11]: 13.5 µM
TGI [12]: 13.4 µM
TGI [13]: 23.6 µM
TGI [14]: 50.5 µM
TGI [15]: 17.2 µM
TGI [16]: 26.5 µM
TGI [60]: 11.5 µM
TGI [17]: 16.1 µM
TGI [18]: 17.2 µM
TGI [19]: > 37.7 µM
TGI [20]: 13.5 µM
TGI [54]: 22.7 µM
TGI [21]: 6.41 µM
TGI [22]: 19 µM
TGI [23]: 21.2 µM
TGI [25]: 19.5 µM
TGI [61]: 16 µM
TGI [62]: 4.81 µM
TGI [63]: 17.1 µM
TGI [64]: 15 µM
TGI [26]: 9.56 µM
TGI [55]: 23.6 µM
TGI [27]: 17.3 µM
TGI [28]: 11.4 µM
TGI [29]: 18.8 µM
TGI [65]: 12.6 µM
TGI [30]: 27.8 µM
TGI [31]: 9.63 µM
TGI [32]: 19.9 µM
TGI [33]: 16.8 µM
TGI [66]: 12.1 µM
TGI [34]: 24.6 µM
TGI [35]: 14.3 µM
TGI [36]: 20.7 µM
TGI [37]: 15.3 µM
TGI [38]: 15.6 µM
TGI [39]: 22.6 µM
TGI [40]: 23.4 µM
TGI [41]: 12.2 µM
TGI [42]: 29.7 µM
TGI [43]: 23.9 µM
TGI [44]: 31.8 µM
TGI [45]: 32.1 µM
TGI [56]: 31.7 µM
TGI [46]: 16.4 µM
TGI [47]: 15.6 µM
TGI [67]: 27.1 µM
TGI [48]: 31.9 µM
TGI [49]: 16.2 µM
TGI [57]: 22.2 µM
TGI [50]: 19.7 µM
TGI [51]: 13.8 µM
